Data from patent US20230058623A1, “NOVEL HETEROARYL-TRIAZOLE COMPOUNDS AS PESTICIDES” (Bayer Aktiengesellschaft, priority 2019, published 2023).

Columns and labels:
Format in all cases: in vivo
[1] = system: adult unfed cat fleas (Ctenocephalides felis); assay: Ctenocephalides felis oral test; details: 48 h, read-out: activity (mortality)
Method: Ctenocephalides felis—Oral Test
(§1) Solvent: dimethyl sulfoxide
To produce a suitable preparation of active compound, 10 mg of active compound are dissolved in 0.5 mL solvent, and the concentrate is diluted with citrated cattle blood to the desired concentration.
Approximately 20 adult unfed cat fleas (Ctenocephalides felis) are placed in a flea chamber whose top and bottom is covered with gauze. A chamber whose bottom is sealed with parafilm, is filled with the blood-compound solution and placed on top of the flea chamber, so that the fleas can suck the blood. The blood chamber is heated to 37° C. whereas the flea chamber is kept at room temperature.
After 2 days mortality in % is determined. 100% means all the fleas have been killed; 0% means none of the fleas have been killed.

[2] = system: cattle ticks (Rhipicephalus microplus) strain Parkhurst, SP-resistant; assay: Rhipicephalus (Boophilus) microplus dip test; details: 168 h, application rate 100 ppm, egg deposition after 7 days, read-out: activity (efficacy: infertile eggs)
Method: Rhipicephalus (Boophilus) microplus—Dip Test
Test animal: cattle ticks (Rhipicephalus microplus) strain Parkhurst, SP-resistant
as §1
To produce a suitable preparation of active compound, 10 mg of active compound are dissolved in 0.5 mL solvent, and the concentrate is diluted with water to the desired concentration.
This compound solution is pipetted into tubes. 8-10 engorged, adult, female cattle ticks (Rhipicephalus microplus) are placed in perforated tubes. These tubes are immersed in the aqueous compound solution until the ticks are completely moistened. After the liquid has drained off, the ticks are transferred to a filter paper in a plastic tray and stored in a climate chamber.
After 7 days egg deposition of fertile eggs is monitored. Eggs where fertility is not visible are stored in a climate chamber till hatching after about 42 days. An efficacy of 100% means all eggs are infertile; 0% means all eggs are fertile.

[3] = system: adult engorged female ticks (Rhipicephalus microplus); assay: Rhipicephalus (Boophilus) microplus injection test; details: 168 h, application rate 4 μg/tick, egg deposition after 7 days, read-out: activity (efficacy: infertile eggs)
Procedure, shortened: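 Compound in DMSO (10 mg per 0.5 mL, then diluted with DMSO to test concentration); 1 μL injected into the abdomen of each of five engorged females, then held in a climate chamber. Fertile egg deposition checked at 7 days; efficacy 100% = all eggs infertile, 0% = all fertile.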

[4] = system: Rhipicephalus (Boophilus) microplus larvae (strain Parkhurst, resistant against synthetic pyrethroids); assay: Rhipicephalus (Boophilus) microplus in-vitro contact test, larval cattle tick; details: after 48 hours, read-out: activity (efficacy: larvae dead or moribund); for pest or weed control at 1 µg/cm2, 100 g/ha: application rate 1 μg/cm^2 (=100 g/ha); for pest or weed control at 5 µg/cm2, 500 g/ha: application rate 5 μg/cm^2 (=500 g/ha)
Procedure, shortened: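 Pyrethroid-resistant Parkhurst larvae, 20–50 per tube, were kept 48 h at 27 °C and 85% relative humidity in glass tubes whose inner walls carried a dried acetone film of compound (900 ppm giving 5 μg/cm^2). Dead or moribund larvae, judged by loss of negative geotactic behavior, set percent efficacy.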

[5] = system: green peach aphid (Myzus persicae); assay: Myzus persicae spray test; details: foliar, 120 h, after 5 days, Chinese cabbage leaf disks; for mortality at 100 g/ha: application rate 100 g/ha, read-out: activity (mortality)
Procedure, shortened: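 Percent kill was recorded 5 days after spraying. Test solutions, prepared with solvent and diluted in 1000 ppm emulsifier water, were applied to Brassica pekinensis leaf disks carrying mixed-instar green peach aphids.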

[6] = system: green peach aphid (Myzus persicae); assay: Myzus persicae oral test; details: 120 h, read-out: activity (mortality)
Procedure, shortened: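 Five-day oral feeding assay measuring percent mortality of a mixed aphid population that draws compound-containing sugared IPL41 medium through sealing parafilm; the test preparation derives from 1 part compound per 100 parts acetone, diluted with water.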

[7] = system: larvae of the banded cucumber beetle (Diabrotica balteata); assay: Diabrotica balteata spray test; details: 168 h, after 7 days, wheat seeds, read-out: activity (efficacy: seedlings grown); for pest or weed control at 32 µg/disc, 100 g/ha: application rate 100 g/ha (=32 μg/well)
Procedure, shortened: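 Efficacy (%) read 7 days after infesting treated seedlings with 10-20 banded cucumber beetle larvae, 100% meaning growth as in uninfected untreated control and 0% no growth. Test solutions in water containing 1000 ppm emulsifier were sprayed onto wheat seeds germinated for 1 day on agar.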

[8] = system: adult mosquitoes Aedes aegypti strain MONHEIM; assay: Aedes aegypti test (AEDSAE surface treatment & contact assay); details: 24 hours after contact, read-out: efficacy (mortality); for mortality at 20 mg/m2: surface concentration 20 mg/m^2, exposure 30 minutes
Method: Aedes aegypti Test (AEDSAE Surface Treatment & Contact Assay)
(§2) Solvent: Aceton+2000 ppm rapeseed oil methyl ester (RME)
(§3) In order to produce a sufficient, active ingredient containing solution it is necessary to solve the test compound in the solvent-mix (acetone at 2 mg/ml/RME 2000 ppm). This solution is pipetted onto a glazed tile and after evaporation of the acetone, adult mosquitoes of the species Aedes aegypti strain MONHEIM are placed onto the dried surface. The exposure time is 30 minutes.
(§4) Mortality in percent (%) is determined 24 hours after contact of the insects to the treated surface. 100% mortality means that all tested insects are dead, whereas 0% means that no insect died.

[9] = system: adult cat fleas (Ctenocephalides felis); assay: Ctenocephalides felis in-vitro contact test, adult cat flea; details: application rate 5 μg/cm^2 (=500 g/ha), after 48 hours, read-out: activity (efficacy: fleas dead or moribund)
Procedure, shortened: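 After 48 h of room-temperature exposure in tubes whose walls carried dried compound residue (5 μg/cm^2, from 900 ppm acetone solution), adult cat fleas (5-10 per tube) were heat-challenged at 45-50° C up to 5 min. Fleas unable to climb away were counted dead or moribund, expressed as % efficacy.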

[10] = system: brown planthopper (Nilaparvata lugens); assay: Nilaparvata lugens spray test; details: 96 h, after 4 days, rice plants; for mortality at 500 g/ha: application rate 500 g/ha
Method: Nilaparvata lugens—Spray Test
To produce a suitable preparation of active compound, 1 part by weight of active compound is mixed with the stated amount of solvents and is diluted with water, containing an emulsifier concentration of 1000 ppm, to the desired concentration. Further test concentrations are prepared by dilution with emulsifier containing water.
Rice plants (Oryza sativa) are sprayed with a preparation of the active ingredient of the desired concentration and the plants are infested with the brown planthopper (Nilaparvata lugens).
After 4 days mortality in % is determined. 100% means all planthoppers have been killed and 0% means none of the planthoppers have been killed.

[11] = system: larvae of the southern green stink bug (Nezara viridula); assay: Nezara viridula spray test; details: 96 h, after 4 days, barley plants; for mortality at 500 g/ha: application rate 500 g/ha, read-out: activity (mortality)
Procedure, shortened: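 Barley plants sprayed with the active compound in emulsifier-containing water, then infested with stink bug larvae. Mortality scored in % after 4 days, with 100% meaning all insects killed.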

[12] = system: fall armyworm larvae (Spodoptera frugiperda); assay: Spodoptera frugiperda spray test; details: 168 h, application rate 100 g/ha, after 7 days, maize leaf sections
Procedure, shortened: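 Leaf-spray assay on maize: sections treated with active ingredient at the desired concentration in emulsifier-containing water (1000 ppm) and, once dry, exposed to armyworm caterpillars. Kill rate is expressed in percent after seven days.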

[13] = system: adult brown dog ticks (Rhipicephalus sanguineus); assay: Rhipicephalus sanguineus in-vitro contact test, adult brown dog ticks; details: application rate 5 μg/cm^2 (=500 g/ha), after 48 hours, read-out: activity (efficacy: ticks dead or moribund)
Procedure, shortened: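 Glass tubes are coated with compound dissolved in acetone, a 900 ppm solution yielding 5 μg/cm^2 on the inner surface. Adult ticks (5-10 per tube) are kept on the dry film at room temperature for 48 h, then those unable to escape 45-50° C heat are counted as dead or moribund.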

[14] = system: adult flies Musca domestica strain WHO-N; assay: Musca domestica test (MUSCDO surface treatment & contact assay); details: 24 hours after contact, read-out: efficacy (mortality); for mortality at 20 mg/m2: surface concentration 20 mg/m^2, exposure 30 minutes
Method: Musca domestica Test (MUSCDO Surface Treatment & Contact Assay)
as §2
as §3, with “flies” for “mosquitoes”, “Musca domestica” for “Aedes aegypti”, “WHO-N” for “MONHEIM”
as §4

[15] = system: adult mosquitoes Anopheles funestus strain FUMOZ-R; assay: Anopheles funestus test (ANPHFU surface treatment & contact assay); details: surface concentration 20 mg/m^2, exposure 30 minutes, 24 hours after contact, read-out: efficacy (mortality)
Method: Anopheles funestus Test (ANPHFU Surface Treatment & Contact Assay)
as §2
as §3, with “Anopheles funestus” for “Aedes aegypti”, “FUMOZ-R (Hunt et al., Med. Vet. Entomol. 2005 September; 19(3): 271-275)” for “MONHEIM”
as §4

[16] = surface concentration 4 mg/m^2, exposure 30 minutes

Row | SMILES | pest or weed control at 1 µg/cm2, 100 g/ha [4] [%] | pest or weed control at 5 µg/cm2, 500 g/ha [4] [%] | mortality at 100 g/ha [5] [%] | mortality at 4 ppm [6] [%] | pest or weed control at 32 µg/disc, 100 g/ha [7] [%] | mortality at 20 mg/m2 [8] [%] | pest or weed control at 5 µg/cm2 [9] [%] | mortality at 100 g/ha [12] [%] | pest or weed control at 5 µg/cm2, 500 g/ha [13] [%] | mortality at 500 g/ha [10] [%] | mortality at 500 g/ha [11] [%] | mortality at 20 mg/m2 [14] [%] | other results
1 | C[C@H](NC(=O)c1cc(C(F)(F)F)cc(C(F)(F)F)c1)c1ncnn1-c1ccc(C(=O)N2CCC(O)C2)cn1 (stereo partly drawn) [Example I-13] | 100 | 100 | 100 | 100 | – | – | – | – | – | – | – | – | mortality at 100 ppm [1]: 100%; pest or weed control at 100 ppm [2]: 80%; pest or weed control at 0.004 mg [3]: 100%
2 | C[C@H](NC(=O)c1cc(C(F)(F)F)cc(S(C)(=O)=O)c1)c1ncnn1-c1ccc(C(=O)N2CCOCC2)cn1 [Example I-102] | – | – | 90 | 100 | 100 | 80 to 100 | 80 | 100 | – | – | – | – | mortality at 4 mg/m2 [8, 16]: 80 to 100%; mortality at 100 g/ha ([10]; application rate 100 g/ha): 90%; mortality at 100 g/ha ([11]; application rate 100 g/ha): 100%
3 | C[C@H](NC(=O)c1cc(C(F)(F)F)cc(C(F)(F)F)c1)c1ncnn1-c1ccc(C(=O)N2CC(C)(C)OC(C)(C)C2)cn1 [Example I-77] | 100 | 100 | – | – | 100 | – | 100 | 100 | 80 | 100 | 100 | 80 to 100 | –
4 | CCc1nc([C@H](C)NC(=O)c2cc(C(F)(F)F)cc(C(F)(F)F)c2)n(-c2ccc(C(=O)N3CCOCC3)cn2)n1 [Example I-131] | 100 | 100 | 90 | – | 100 | 80 to 100 | 100 | 100 | 100 | 100 | 100 | 80 to 100 | –
5 | CC(NC(=O)c1cc(C(F)(F)F)cc(C(F)(F)F)c1)c1nc(C(F)F)nn1-c1ccc(C(=O)N2CCOCC2)cn1 (racemic) [Example I-83, N-[1-[5-(Difluoromethyl)-2-[5-(morpholine-4-carbonyl)-2-pyridyl]-1,2,4-triazol-3-yl]ethyl]-3,5-bis(trifluoromethyl)benzamide] | – | – | – | 100 | 100 | – | – | 100 | – | – | 100 | 80 to 100 | mortality at 20 mg/m2 [15]: 80 to 100%; pest or weed control at 160 µg/disc, 500 g/ha ([7]; application rate 500 g/ha (=160 μg/well)): 100%; mortality at 100 ppm [1]: 100%; pest or weed control at 0.004 mg [3]: 100%; mortality at 500 g/ha ([5]; application rate 500 g/ha): 90%; mortality at 20 ppm [6]: 100%
6 | C[C@H](NC(=O)c1cc(C(F)(F)F)cc(C(F)(F)F)c1)c1ncnn1-c1ccc(C(=O)N2CCN(C)C(=O)C2)cn1 [Example I-79] | – | – | – | 100 | – | 80 to 100 | – | 100 | – | 100 | 100 | 80 to 100 | mortality at 20 mg/m2 [15]: 80 to 100%
7 | Cc1nc([C@H](C)NC(=O)c2cc(C(F)(F)F)cc(C(F)(F)F)c2)n(-c2cnc(C(=O)N3C[C@@H](C)O[C@@H](C)C3)cn2)n1 [Example I-138] | 100 | 100 | 90 | – | 100 | – | 100 | 100 | 100 | 100 | 100 | 80 to 100 | –
8 | CCc1nc([C@H](C)NC(=O)c2cc(C(F)(F)F)cc(C(F)(F)F)c2)n(-c2ccc(C(=O)N3C[C@@H](C)O[C@@H](C)C3)cn2)n1 [Example I-130] | 100 | 100 | 90 | – | 100 | – | 100 | 100 | 100 | 100 | 100 | 80 to 100 | mortality at 4 mg/m2 [14, 16]: 80 to 100%
